Assay in all cases: inhibition of tumour cell growth, NCI panel, 48 h
The test system of test [1] is DU-145 prostate.
Test [2] relates to U251 CNS.
Test [3] deals with PC-3 prostate.
The test system of test [4] is UACC-257 melanoma.
Test [5] relates to SF-539 CNS.
Test [6] relates to HCC-2998 colon.
The test system of test [7] is EKVX NSCLC.
In test [8] the test system is SK-MEL-5 melanoma.
Test [9] deals with SNB-19 CNS.
Test [10] relates to SN12C renal.

The structures appear in SMILES notation.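 Briefly, cells in 96-well plates were exposed to five compound concentrations for 48 h, and endpoints were estimated by linear interpolation. At the GI50, growth is halved. TGI is the concentration that stops growth completely.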

On to `COc1cc(N(CCC#N)CCC#N)ccc1/C(N=Nc1ccc(Cl)cc1)=N/NC(=O)c1cc(Br)ccc1O`, for which the GI50 was 143 µg/mL in test [1]; 145 µg/mL in [2]; 64.1 µg/mL in test [3]; > 150 µg/mL in test [4]; 73.3 µg/mL in [5]; 33.8 µg/mL in [6]. Moreover, the GI50 in test [7] was 72.4 µg/mL; in test [8] it was 82 µg/mL; in test [9], > 150 µg/mL; in [10], 88.4 µg/mL. Moreover, the TGI in test [1] is > 150 µg/mL; in [2], > 150 µg/mL; in test [3], > 150 µg/mL; in test [4], > 150 µg/mL; in test [5], > 150 µg/mL; in test [6], 81.8 µg/mL. In addition, the TGI in [7], in [8], in test [9] and in test [10] was > 150 µg/mL in each case.
Consider `CC(NCCC(c1ccccc1)c1ccccc1)c1ccccc1` (stereo not given), for which the GI50 was 3090 nM in test [1]; 1590 nM in test [2]; 2100 nM in test [3]; 1650 nM in [4]; 2920 nM in test [5]; 1600 nM in test [6]. Besides, the GI50 in test [7] was 3630 nM; in test [8], 1600 nM; in test [9], 1560 nM; in test [10] it was 2420 nM. For the same compound, the TGI in test [1] is 9.76 µM; in test [2], 2.99 µM; in test [3], 6.96 µM; in test [4], 4.02 µM; in [5], 9.01 µM; in [6], 3.07 µM. The TGI in test [7] came out at 16.5 µM; in [8], 2.95 µM; in test [9], 3.44 µM; in test [10], 9.13 µM.
Consider `COc1ccc2nc3ccccc3c(NCc3ccc(F)cc3)c2c1`, for which the GI50 in test [1] was 2090 nM; in test [2], 1940 nM; in test [3], 1960 nM; in [4], 1800 nM; in test [5], 1760 nM; in [6], 1000 nM. Moreover, the GI50 was 2160 nM in [7], 2000 nM in [8], 2040 nM in test [9] and 1830 nM in test [10]. In addition, the TGI came out at 7.04 µM in test [1]; 7.82 µM in test [2]; 8.01 µM in test [3]; 6.68 µM in test [4]; 6.54 µM in test [5]; 2.1 µM in test [6]. Besides, the TGI was 7.95 µM in [7], 7.2 µM in test [8], 7.62 µM in test [9] and 7.32 µM in test [10].
Consider `O=C(Nc1ccc(Br)cc1F)c1cc(Cl)ccc1O`, for which the GI50 in test [1] was 899 nM; in test [2], 709 nM; in test [3], 1870 nM; in test [4], 731 nM; in test [5], 594 nM; in test [6], 2790 nM. The GI50 was 1120 nM in test [7], 273 nM in test [8], 418 nM in [9] and 491 nM in test [10]. Moreover, the TGI was > 100 µM in test [1]; > 100 µM in test [2]; 6.68 µM in test [3]; 4.82 µM in [4]; 5.85 µM in test [5]; 12.7 µM in [6]. For the same compound, the TGI is > 26.2 µM in test [7], 0.815 µM in test [8], > 100 µM in [9] and 5.68 µM in test [10].
Regarding `CCOc1ccc(/C=C2\N=C(c3ccc([N+](=O)[O-])cc3)OC2=O)cc1`, the TGI in [1], in test [2], in test [3], in test [4], in [5] and in test [6] was > 100 µM in each case. Besides, the TGI in [7], in test [8], in test [9] and in test [10] was > 100 µM each time.
As to `CN1CCN(c2ccc(Nc3cc(-c4cccc(-n5ccc6cc(C7CC7)cc(F)c6c5=O)c4CO)cn(C)c3=O)nc2)CC1`, the GI50 in test [1] was 7900 nM; in test [2], 3470 nM; in test [3] it was 8930 nM; in test [4], 2280 nM; in test [5], 1820 nM; in [6] it was 10400 nM. Besides, the GI50 is 2620 nM in test [7], 11900 nM in [8], 3150 nM in test [9] and 3350 nM in test [10]. In addition, the TGI stood at 22 µM in test [1]; 14 µM in [2]; 25.2 µM in [3]; 5.03 µM in [4]; 3.63 µM in test [5]; 35.8 µM in test [6]. Further, the TGI came to 9.11 µM in test [7], 31.1 µM in [8], 15.4 µM in [9] and 13.9 µM in test [10].
Consider `CCC(C)(C)c1ccc(OCCCCNC(=O)c2ccc3ccccc3c2O)c(C(C)(C)CC)c1`, for which the TGI in test [1] was > 100 µM; in test [2] it was > 100 µM; in test [3], 49.7 µM; in test [4], > 100 µM; in [5], > 100 µM; in test [6], > 100 µM. The TGI in [7] was 87.9 µM; in test [8] it was 71.4 µM; in test [9] it was > 100 µM; in [10], > 100 µM.

The record behind these values is PubChem BioAssay (NCI).
